{"source": "the CATMoS acute toxicity set (Mansouri et al. 2021)", "origin": "cited, not measured here", "note": "Where “and” joins values, the source holds several entries; their conditions need not be identical. Equal entries are not always repeated."}
{"experiment": "rat acute oral toxicity", "conditions": "in vivo"}
{"smiles": "CCOc1ccc(/C=C2\\NCCc3cc(OCC)c(OCC)cc32)cc1OCC", "LD50": "540 mg/kg"}
{"smiles": "Nc1ccc([N+](=O)[O-])cc1[N+](=O)[O-]", "LD50": "285 mg/kg"}
{"smiles": "c1ccc2c(c1)Oc1ccccc1O2", "LD50": "1220 mg/kg"}
{"smiles": "CCCN(COC(C)=O)N=O", "LD50": "1000 mg/kg"}
{"smiles": "C=CCOC(=O)Cc1ccccc1", "LD50": "650 mg/kg"}
{"smiles": "CNC(N)=S", "LD50": "50 mg/kg"}
{"smiles": "CCOC(=O)C1OC1(C)c1ccccc1", "note": "(stereo not drawn)", "LD50": "5470 mg/kg"}
{"smiles": "CC[N+]1(CC)CCC(OC(=O)C(O)(c2ccccc2)c2ccccc2)C1", "note": "(stereo not drawn)", "LD50": "760 mg/kg"}
{"smiles": "O=C(NN=C1C=CC(=NO)C=C1)c1ccccc1", "LD50": "100 mg/kg"}
{"smiles": "Cc1ccc(C)nc1", "LD50": "800 mg/kg"}
{"smiles": "CCOP(=S)(OCC)SCn1c(=O)oc2ccccc21", "LD50": "81 mg/kg"}
{"smiles": "Cn1c(=O)c2c(ncn2CC(O)CN2CCN(CCCSc3ccccc3)CC2)n(C)c1=O", "note": "(stereo not drawn)", "LD50": "2100 mg/kg"}
{"smiles": "Fc1ccc(Br)c(F)c1", "LD50": "300 mg/kg"}
{"smiles": "COc1ccc2c(c1)OC(C)(C)C(c1ccccc1)C2c1ccc(OCC2CO2)cc1", "note": "(stereo not drawn)", "LD50": "800 mg/kg"}
{"smiles": "CC(Cl)COP(=O)(OCC(C)Cl)OCC(C)Cl", "note": "(stereo not drawn)", "LD50": "1020 mg/kg"}
{"smiles": "O=C1C=CC[C@@H]2[C@H]3CCCN4CCC[C@@H](CN12)[C@@H]34", "LD50": "196 mg/kg"}
{"smiles": "CCOCCOCCOc1ccccc1", "LD50": "2140 mg/kg"}
{"smiles": "CC1COC(C(Cl)CCl)O1", "note": "(stereo not drawn)", "LD50": "620 mg/kg"}
{"smiles": "CCOC(=O)OC(=O)OCC", "LD50": "850 mg/kg"}
{"smiles": "COc1ccc(SC#N)c([N+](=O)[O-])c1", "LD50": "3540 mg/kg"}
{"smiles": "Cc1c(Cl)ccc(C(C)c2ccccc2)c1C", "note": "(stereo not drawn)", "LD50": "2130 mg/kg"}
{"smiles": "NC1CCCCC1", "LD50": "720 mg/kg and 1650 mg/kg"}
{"smiles": "CC(C)=CCCC(C)CC(=O)O", "note": "(stereo not drawn)", "LD50": "2610 mg/kg"}
{"smiles": "ClCC=C(Cl)CCl", "LD50": "224 mg/kg"}
{"smiles": "CC1CN1P(=O)(N1CC1C)N1CC1C", "note": "(stereo not drawn)", "LD50": "136 mg/kg"}
{"smiles": "C[N+]1(C)CCN(CC(O)(c2ccccc2)C2CCCCC2)CC1", "note": "(stereo not drawn)", "LD50": "958 mg/kg"}
{"smiles": "CCCCN(CCCC)CCCC", "LD50": "114 mg/kg"}
{"smiles": "CS(=O)(=O)c1ccc2nc(C(F)(F)F)[nH]c2c1", "LD50": "69 mg/kg"}
{"smiles": "CC(C)(C)NCC(O)c1cc(Cl)c(N)c(Cl)c1", "note": "(stereo not drawn)", "LD50": "159 mg/kg"}
{"smiles": "CCN(N=O)C(=O)NC(N)=O", "LD50": "1050 mg/kg"}
{"smiles": "C[Si](Cl)(Cl)CCCC#N", "LD50": "650 mg/kg"}
{"smiles": "COC(=O)Nc1cccc(OC(=O)Nc2cccc(C)c2)c1", "LD50": "4000 mg/kg"}
{"smiles": "Clc1cc2c(cc1Cl)Oc1c(Cl)c(Cl)c(Cl)c(Cl)c1O2", "LD50": "0.887 mg/kg"}
{"smiles": "CCN(CCCC(=O)C1CCCCC1)C(C)Cc1ccc(OC)cc1", "note": "(stereo not drawn)", "LD50": "369 mg/kg"}
{"smiles": "O=C(Cc1ccccc1)NNCc1ccccc1", "LD50": "2500 mg/kg"}
{"smiles": "CNC(=O)ON=C(C)C(C)SC", "note": "(stereo not drawn)", "LD50": "153 mg/kg"}
{"smiles": "CC(N)(Cc1ccc(O)c(O)c1)C(=O)O", "note": "(stereo not drawn)", "LD50": "5710 mg/kg"}
{"smiles": "Cc1ncc(CSCc2cnc(C)c(O)c2CO)c(CO)c1O", "LD50": "7500 mg/kg"}
{"smiles": "O=C(O)C=Cc1ccc([N+](=O)[O-])o1", "LD50": "1220 mg/kg"}
{"smiles": "CN(N=O)c1ccc(N=O)cc1", "LD50": "1370 mg/kg"}
{"smiles": "O=C1c2ccccc2C(=O)c2c1ccc1c2[nH]c2ccc3c4ccc5c6c(ccc(c(=O)c3c21)c46)c1ccc2c(=O)c3ccccc3c3nn5c1c23", "LD50": "11200 mg/kg"}
{"smiles": "NCc1cc(O)no1", "LD50": "45 mg/kg"}
{"smiles": "CCOC1c2ccccc2C(=O)N(C)c2ccccc21", "note": "(stereo not drawn)", "LD50": "4000 mg/kg"}
{"smiles": "CCNC(N)=S", "LD50": "100 mg/kg"}
{"smiles": "C=CC(=O)OCC(CC)(COC(=O)C=C)COC(=O)C=C", "LD50": "5190 mg/kg"}
{"smiles": "Cc1cnc(C)c(C)n1", "LD50": "806 mg/kg"}
{"smiles": "C=CCON/C(CCC)=C1\\C(=O)CC(C)(C)C(C(=O)OC)=C1O", "LD50": "2260 mg/kg"}
{"smiles": "CN(N=O)C(=O)C(=O)N(C)N=O", "LD50": "96 mg/kg"}
{"smiles": "CN1CCN(C)CC1", "LD50": "1120 mg/kg"}
{"smiles": "Nc1cc(-c2ccncc2)c[nH]c1=O", "LD50": "102 mg/kg"}
{"smiles": "CC(CC(C#N)(c1ccccc1)C(C)C)N(C)C", "note": "(stereo not drawn)", "LD50": "250 mg/kg"}
{"smiles": "CCc1cnc(C(=O)O)c(C(=O)O)c1", "LD50": "3350 mg/kg"}
{"smiles": "COc1ccc(C(=C(C#N)CCC(=O)O)c2ccc(OC)cc2)cc1", "LD50": "337 mg/kg"}
{"smiles": "Cc1cc(=O)n(CSP(=S)(OC(C)C)OC(C)C)nc1Cl", "LD50": "110 mg/kg"}
{"smiles": "O=C(Cl)c1ccc(Cl)cc1Cl", "LD50": "4640 mg/kg"}
{"smiles": "CCC[C@]1(c2cccc(O)c2)CCN(C)C[C@@H]1C", "LD50": "887 mg/kg"}
{"smiles": "C=Cc1ccccn1", "LD50": "100 mg/kg"}
{"smiles": "CC(=O)c1cc2cccc(OCC(O)CNC(C)C)c2o1", "note": "(stereo not drawn)", "LD50": "922 mg/kg"}
{"smiles": "CC(CC1CCCCC1)NCCC(c1ccccc1)c1ccccc1", "note": "(stereo not drawn)", "LD50": "1550 mg/kg"}
{"smiles": "C=CN(CC)N=O", "LD50": "88 mg/kg"}
{"smiles": "CCOC(=O)C1=C(C)NC(C)=C(C(=O)OC)C1c1cccc(Cl)c1Cl", "note": "(stereo not drawn)", "LD50": "1050 mg/kg"}
{"smiles": "CN(C)C1CCCCC1", "LD50": "348 mg/kg"}
{"smiles": "O=C1CC(c2cccc(Br)c2)C(=O)N1", "note": "(stereo not drawn)", "LD50": "1750 mg/kg"}
{"smiles": "C=CC(=O)OCCCCCCCCCC", "LD50": "6460 mg/kg"}
{"smiles": "Cc1cc(C)cc(Cc2ccccc2)c1", "LD50": "2330 mg/kg"}
{"smiles": "Cc1ccc(=O)n(-c2ccccc2)c1", "LD50": "1300 mg/kg"}
{"smiles": "CC1CCC(=O)CC1", "LD50": "800 mg/kg"}
{"smiles": "Cc1cc(Cl)ccc1N", "LD50": "1060 mg/kg"}
{"smiles": "CN1CCN(C(=O)Cn2c(=O)sc3ccc(Cl)cc32)CC1", "LD50": "640 mg/kg"}
{"smiles": "CC1CC=NN1C(=N)N=C(N)N", "note": "(stereo not drawn)", "LD50": "4350 mg/kg"}
{"smiles": "COC(=O)C1=C(C)NC(C)=C(C(=O)O[C@@H]2CCCN(Cc3ccccc3)C2)[C@@H]1c1cccc([N+](=O)[O-])c1", "note": "(racemic)", "LD50": "87.6 mg/kg"}
{"smiles": "Nc1ccc(N=Nc2ccccc2)cc1", "LD50": "1250 mg/kg"}
{"smiles": "O=C(O)c1cc(I)cc(I)c1I", "LD50": "2200 mg/kg and 813 mg/kg"}
